Data reported in paper PMC12352620, “Fragment-based discovery of dual ligand pharmacophores for lipid-sensing transcription factors for designed polypharmacology” (RSC Medicinal Chemistry, 2025).

Columns and labels:
Assay type in all cases: cell-based
THRα = biological target: T1, THRα (Homo sapiens, UniProt P10827); assay: Gal4-hybrid reporter gene assay THRα; conditions: n ≥ 3; for fold act. THRα: mean, Fig. 8; for EC50: HEK293T, Gal4-hybrid reporter, Inactive = tested 1–300 μM; for EC50 / max. fold activation THRα: mean ± S.E.M.; for max. fold activation THRα: maximum reporter activation vs DMSO (0.1%) treated cells
T1 construct: expressed in transfected cells; host or cells: HEK293T
T1 sequence (P10827 128-410 isoform P10827-2 limits assumed): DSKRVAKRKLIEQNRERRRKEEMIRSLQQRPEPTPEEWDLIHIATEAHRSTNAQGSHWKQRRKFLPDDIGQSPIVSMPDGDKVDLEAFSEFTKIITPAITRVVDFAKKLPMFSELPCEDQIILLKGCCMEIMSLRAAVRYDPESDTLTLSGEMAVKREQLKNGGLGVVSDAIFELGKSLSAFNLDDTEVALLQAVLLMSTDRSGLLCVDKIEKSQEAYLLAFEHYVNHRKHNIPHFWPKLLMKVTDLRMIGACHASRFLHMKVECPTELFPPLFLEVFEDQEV
Experimental: (§1) NR modulation was determined as described previously[45] in Gal4 hybrid reporter gene assays in HEK293T cells (German Collection of Microorganisms and Cell Culture GmbH, DSMZ) using pFR-Luc (Stratagene, La Jolla, CA, USA; reporter), pRL-SV40 (Promega, Madison, WI, USA; internal control) and the hybrid receptor clones pFA-CMV-hTHRα-LBD,[46] pFA-CMV-hPPARγ-LBD,[47] pFA-CMV-hFXR-LBD,[48] and pFA-CMV-hRXRα-LBD,[49] coding for the hinge region and ligand binding domain of the canonical isoform of the respective NR. Cells were cultured in Dulbecco's modified Eagle's medium (DMEM), high glucose supplemented with 10% fetal calf serum (FCS), sodium pyruvate (1 mM), penicillin (100 U mL^−1), and streptomycin (100 μg mL^−1) at 37 °C and 5% CO2 and seeded in 96-well plates (3 × 10^4 cells per well). After 24 h, medium was changed to Opti-MEM without supplements and cells were transiently transfected using Lipofectamine LTX reagent (Invitrogen, Carlsbad, CA, USA) according to the manufacturer's protocol. Five hours after transfection, cells were incubated with the test compounds in Opti-MEM supplemented with penicillin (100 U mL^−1), streptomycin (100 μg mL^−1) and 0.1% DMSO for 16 h before luciferase activity was measured using the Dual-Glo Luciferase Assay System (Promega) according to the manufacturer's protocol on a Tecan Spark luminometer (Tecan Deutschland GmbH, Crailsheim, Germany). Firefly luminescence was divided by Renilla luminescence and multiplied by 1000 resulting in relative light units (RLU) to normalize for transfection efficiency and cell growth. Fold activation was obtained by dividing the mean RLU of test compound by the mean RLU of the untreated control. All samples were tested in at least three biologically independent experiments in duplicates. For dose–response curve fitting and calculation of EC50 values, the equation “[agonist] vs. response − variable slope (four parameters)” was used in GraphPad Prism (version 7.00, GraphPad Software, La Jolla, CA, USA). For selectivity profiling, the hybrid reporter gene assay was performed with Gal4 fusion receptor plasmids for RARα, PPARα, PPARδ, VDR, CAR and LXRα. The following reference agonists were used: triiodothyronine (1 μM, THR), all-trans retinoic acid (1 μM, RAR), GW7647 (1 μM, PPARα), pioglitazone (1 μM, PPARγ), L165041 (1 μM, PPARδ), calcitriol (1 μM, VDR), CITCO (1 μM, CAR), T0901317 (1 μM, LXR), GW4064 (1 μM, FXR), bexarotene (1 μM, RXR).

PPARδ = biological target: T2, PPARδ (Homo sapiens, UniProt Q03181); assay: Gal4-hybrid reporter gene assay PPARδ (selectivity); conditions: mean, n ≥ 3, Fig. 8
T2 construct: expressed in transfected cells; host or cells: HEK293T
T2 sequence (Q03181 138-441 limits assumed): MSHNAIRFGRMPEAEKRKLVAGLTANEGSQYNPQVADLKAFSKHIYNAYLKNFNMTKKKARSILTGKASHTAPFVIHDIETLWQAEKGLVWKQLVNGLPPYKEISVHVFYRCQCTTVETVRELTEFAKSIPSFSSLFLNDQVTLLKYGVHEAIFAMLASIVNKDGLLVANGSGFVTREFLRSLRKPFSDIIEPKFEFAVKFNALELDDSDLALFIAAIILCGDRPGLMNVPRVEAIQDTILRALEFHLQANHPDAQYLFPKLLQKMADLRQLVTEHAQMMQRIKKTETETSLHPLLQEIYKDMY
Experimental: as §1

FXR = biological target: T3, FXR (Homo sapiens, UniProt Q96RI1); assay: Gal4-hybrid reporter gene assay FXR; conditions: n ≥ 3; for fold act. FXR: mean, Fig. 8; for EC50 / EC50 FXR: HEK293T, Gal4-hybrid reporter, Inactive = tested 1–300 μM; for EC50 / max. fold activation FXR / EC50 FXR: mean ± S.E.M.; for max. fold activation FXR: maximum reporter activation vs DMSO (0.1%) treated cells
T3 construct: expressed in transfected cells; host or cells: HEK293T
T3 sequence (Q96RI1 262-486 limits assumed): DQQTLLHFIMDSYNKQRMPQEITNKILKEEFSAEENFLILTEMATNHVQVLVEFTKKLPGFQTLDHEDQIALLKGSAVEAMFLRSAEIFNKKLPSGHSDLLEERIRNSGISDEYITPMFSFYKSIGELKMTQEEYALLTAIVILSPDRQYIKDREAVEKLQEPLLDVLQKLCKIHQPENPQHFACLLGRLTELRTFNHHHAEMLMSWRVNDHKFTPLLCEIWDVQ
Experimental: as §1

LXRα = biological target: T4, LXRα (Homo sapiens, UniProt Q13133); assay: Gal4-hybrid reporter gene assay LXRα (selectivity); conditions: mean, n ≥ 3, Fig. 8
T4 construct: expressed in transfected cells; host or cells: HEK293T
T4 sequence (Q13133 171-447 limits assumed): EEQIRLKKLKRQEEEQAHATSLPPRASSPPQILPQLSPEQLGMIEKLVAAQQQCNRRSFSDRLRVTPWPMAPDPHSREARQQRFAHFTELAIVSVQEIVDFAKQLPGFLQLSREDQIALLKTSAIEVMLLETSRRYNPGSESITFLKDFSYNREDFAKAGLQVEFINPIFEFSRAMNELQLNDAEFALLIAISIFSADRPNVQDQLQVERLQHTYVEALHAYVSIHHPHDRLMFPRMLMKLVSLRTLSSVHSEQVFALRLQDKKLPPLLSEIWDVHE
Experimental: as §1

PPARα = biological target: T5, PPARα (Homo sapiens, UniProt Q07869); assay: Gal4-hybrid reporter gene assay PPARα (selectivity); conditions: mean, n ≥ 3, Fig. 8
T5 construct: expressed in transfected cells; host or cells: HEK293T
T5 sequence (Q07869 167-468 limits assumed): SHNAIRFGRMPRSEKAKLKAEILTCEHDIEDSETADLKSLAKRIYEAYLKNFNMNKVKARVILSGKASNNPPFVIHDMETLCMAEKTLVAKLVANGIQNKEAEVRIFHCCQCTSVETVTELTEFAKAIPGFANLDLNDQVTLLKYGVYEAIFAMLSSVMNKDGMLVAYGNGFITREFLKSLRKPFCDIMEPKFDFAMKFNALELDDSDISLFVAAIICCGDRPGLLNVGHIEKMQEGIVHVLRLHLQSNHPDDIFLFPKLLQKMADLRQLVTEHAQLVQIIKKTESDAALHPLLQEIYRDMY
Experimental: as §1

| Compound | fold act. THRα (THRα; 10 μM) | EC50 (THRα) | max. fold activation THRα (THRα) | fold act. PPARδ (PPARδ; 10 μM) | fold act. FXR (FXR; 10 μM) | EC50 (FXR) | max. fold activation FXR (FXR) | fold act. LXR (LXRα; 10 μM) | fold act. PPARα (PPARα; 10 μM) | fold act. THRα (THRα; 30 μM) | fold act. PPARδ (PPARδ; 30 μM) | fold act. FXR (FXR; 30 μM) | EC50 FXR (FXR) | fold act. LXR (LXRα; 30 μM) | fold act. PPARα (PPARα; 30 μM) | fold act. THRα (THRα; 40 μM) | fold act. PPARδ (PPARδ; 40 μM) | fold act. FXR (FXR; 40 μM) | fold act. LXR (LXRα; 40 μM) | fold act. PPARα (PPARα; 40 μM) |
| --- | --- | --- | --- | --- | --- | --- | --- | --- | --- | --- | --- | --- | --- | --- | --- | --- | --- | --- | --- | --- |
| CCOc1ccc(-c2cc(C(=O)O)co2)cc1 [3.1, 5-(4-Ethoxyphenyl)furan-3-carboxylic acid] | 4 fold | 1.5 ± 0.2 µM | (3.7 ± 0.2-fold) | 2 fold | 6 fold | 1.3 ± 0.3 µM | (6.4 ± 0.3-fold) | 3 fold | 5 fold | – | – | – | – | – | – | – | – | – | – | – |
| O=C(O)/C=C/C(=O)c1ccc(Cl)cc1Cl [4.6, (E)-4-Oxo-4-(2,4-dichlorophenyl)but-2-enoic acid] | – | 43 ± 3 µM | (4.2 ± 0.3-fold) | – | – | – | – | – | – | 2 fold | 1 fold | 1 fold | Inactive | 1 fold | 1 fold | – | – | – | – | – |
| O=C(O)/C=C/C(=O)c1ccc(-c2ccccc2)cc1 [4.7, (E)-4-([1,1′-Biphenyl]-4-yl)-4-oxobut-2-enoic acid] | – | 16 ± 7 µM | (14.8 ± 1.0-fold) | – | – | – | – | – | – | 15 fold | 3 fold | 1 fold | Inactive | 1 fold | 6 fold | – | – | – | – | – |
| O=C(O)/C=C/C(=O)c1ccc2ccccc2c1 [4.8, (E)-4-Oxo-4-(naphthalen-2-yl)but-2-enoic acid] | – | 39 ± 1 µM | (28 ± 1-fold) | – | – | 26 ± 4 µM | (7 ± 1-fold) | – | – | – | – | – | – | – | – | 16 fold | 3 fold | 6 fold | 3 fold | 7 fold |
